Data from US10322111B2, “Chemokine receptor binding heterocyclic compounds with enhanced efficacy” (Genzyme Corporation, priority 2001, dated 2019).
Like-named read-outs stand apart in the source and are kept apart here.

Tests used:
[1] = test system: unseparated and low density nucleated cells; conditions: 80 μg/kg s.c.; for % CHG, nucleated cellularity PBL-LD / % CHG, nucleated cellularity PBL-US / Fold Change Compared to TIME = 0, nucleated cellularity PBL-LD, MEAN / Fold Change Compared to TIME = 0, nucleated cellularity PBL-US, MEAN: average of 5 donors

c1cc(CN2CCCNCCNCCCNCC2)ccc1CN1CCCNCCNCCCNCC1 [AMD3100, 1,1′-[1,4-phenylene-bis(methylene)]-bis-1,4,8,11-tetraazacyclotetradecane]
FOLD CHANGE COMPARED TO TIME = 0, nucleated cellularity PBL-LD ([1]; P3, T = 6 h after injection): 2.27 fold
FOLD CHANGE COMPARED TO TIME = 0, nucleated cellularity PBL-US ([1]; P3, T = 6 h after injection): 2.74 fold
FOLD CHANGE COMPARED TO TIME = 0, nucleated cellularity PBL-LD ([1]; P3, T = 9 h after injection): 2.47 fold
FOLD CHANGE COMPARED TO TIME = 0, nucleated cellularity PBL-US ([1]; P3, T = 9 h after injection): 2.69 fold
FOLD CHANGE COMPARED TO TIME = 0, nucleated cellularity PBL-LD ([1]; P3, T = 24 h after injection): 0.79 fold
FOLD CHANGE COMPARED TO TIME = 0, nucleated cellularity PBL-US ([1]; P3, T = 24 h after injection): 0.96 fold
FOLD CHANGE COMPARED TO TIME = 0, nucleated cellularity PBL-LD ([1]; P4, T = 1 h after injection): 1.66 fold
FOLD CHANGE COMPARED TO TIME = 0, nucleated cellularity PBL-US ([1]; P4, T = 1 h after injection): 1.36 fold
FOLD CHANGE COMPARED TO TIME = 0, nucleated cellularity PBL-LD ([1]; P4, T = 3 h after injection): 2.82 fold
FOLD CHANGE COMPARED TO TIME = 0, nucleated cellularity PBL-US ([1]; P4, T = 3 h after injection): 2.46 fold
FOLD CHANGE COMPARED TO TIME = 0, nucleated cellularity PBL-LD ([1]; P4, T = 6 h after injection): 2.78 fold
FOLD CHANGE COMPARED TO TIME = 0, nucleated cellularity PBL-US ([1]; P4, T = 6 h after injection): 2.60 fold
FOLD CHANGE COMPARED TO TIME = 0, nucleated cellularity PBL-LD ([1]; P4, T = 9 h after injection): 2.48 fold
FOLD CHANGE COMPARED TO TIME = 0, nucleated cellularity PBL-US ([1]; P4, T = 9 h after injection): 2.24 fold
FOLD CHANGE COMPARED TO TIME = 0, nucleated cellularity PBL-LD ([1]; P4, T = 24 h after injection): 0.60 fold
FOLD CHANGE COMPARED TO TIME = 0, nucleated cellularity PBL-US ([1]; P4, T = 24 h after injection): 0.77 fold
FOLD CHANGE COMPARED TO TIME = 0, nucleated cellularity PBL-LD ([1]; P5, T = 1 h after injection): 2.10 fold
FOLD CHANGE COMPARED TO TIME = 0, nucleated cellularity PBL-US ([1]; P5, T = 1 h after injection): 1.76 fold
FOLD CHANGE COMPARED TO TIME = 0, nucleated cellularity PBL-LD ([1]; P5, T = 3 h after injection): 3.20 fold
FOLD CHANGE COMPARED TO TIME = 0, nucleated cellularity PBL-US ([1]; P5, T = 3 h after injection): 3.23 fold
FOLD CHANGE COMPARED TO TIME = 0, nucleated cellularity PBL-LD ([1]; P5, T = 6 h after injection): 5.30 fold
FOLD CHANGE COMPARED TO TIME = 0, nucleated cellularity PBL-US ([1]; P5, T = 6 h after injection): 4.04 fold
FOLD CHANGE COMPARED TO TIME = 0, nucleated cellularity PBL-LD ([1]; P5, T = 9 h after injection): 5.17 fold
FOLD CHANGE COMPARED TO TIME = 0, nucleated cellularity PBL-US ([1]; P5, T = 9 h after injection): 3.96 fold
FOLD CHANGE COMPARED TO TIME = 0, nucleated cellularity PBL-LD ([1]; P5, T = 24 h after injection): 1.12 fold
FOLD CHANGE COMPARED TO TIME = 0, nucleated cellularity PBL-US ([1]; P5, T = 24 h after injection): 0.99 fold
% CHG, nucleated cellularity PBL-LD ([1]; T = 1 h after injection): 86.2%
% CHG, nucleated cellularity PBL-US ([1]; T = 1 h after injection): 68.6%
Fold Change Compared to TIME = 0, nucleated cellularity PBL-LD, MEAN ([1]; T = 1 h after injection): 1.86 fold
Fold Change Compared to TIME = 0, nucleated cellularity PBL-US, MEAN ([1]; T = 1 h after injection): 1.69 fold
% CHG, nucleated cellularity PBL-LD ([1]; T = 3 h after injection): 185.6%
% CHG, nucleated cellularity PBL-US ([1]; T = 3 h after injection): 180.2%
Fold Change Compared to TIME = 0, nucleated cellularity PBL-LD, MEAN ([1]; T = 3 h after injection): 2.86 fold
Fold Change Compared to TIME = 0, nucleated cellularity PBL-US, MEAN ([1]; T = 3 h after injection): 2.80 fold
% CHG, nucleated cellularity PBL-LD ([1]; T = 6 h after injection): 266.3%
% CHG, nucleated cellularity PBL-US ([1]; T = 6 h after injection): 225.8%
Fold Change Compared to TIME = 0, nucleated cellularity PBL-LD, MEAN ([1]; T = 6 h after injection): 3.66 fold
Fold Change Compared to TIME = 0, nucleated cellularity PBL-US, MEAN ([1]; T = 6 h after injection): 3.26 fold
% CHG, nucleated cellularity PBL-LD ([1]; T = 9 h after injection): 264.3%
% CHG, nucleated cellularity PBL-US ([1]; T = 9 h after injection): 209.4%
Fold Change Compared to TIME = 0, nucleated cellularity PBL-LD, MEAN ([1]; T = 9 h after injection): 3.64 fold
Fold Change Compared to TIME = 0, nucleated cellularity PBL-US, MEAN ([1]; T = 9 h after injection): 3.09 fold
% CHG, nucleated cellularity PBL-LD ([1]; T = 24 h after injection): 4.6%
% CHG, nucleated cellularity PBL-US ([1]; T = 24 h after injection): 7.0%
Fold Change Compared to TIME = 0, nucleated cellularity PBL-LD, MEAN ([1]; T = 24 h after injection): 1.05 fold
Fold Change Compared to TIME = 0, nucleated cellularity PBL-US, MEAN ([1]; T = 24 h after injection): 1.07 fold
time post-administration at which elevation of the white blood cell count maximized (white blood cells; human volunteers, 80 μg/kg s.c.): 6 h
white blood cells (white blood cells; volunteer P1, 1 Hr after 80 μg/kg s.c.): 14.8 ×10^3 WBC's
white blood cells (white blood cells; volunteer P1, 2 Hr after 80 μg/kg s.c.): 21.4 ×10^3 WBC's
white blood cells (white blood cells; volunteer P1, 4 Hr after 80 μg/kg s.c.): 23.2 ×10^3 WBC's
white blood cells (white blood cells; volunteer P1, 6 Hr after 80 μg/kg s.c.): 26.2 ×10^3 WBC's
white blood cells (white blood cells; volunteer P1, 9 Hr after 80 μg/kg s.c.): 22.3 ×10^3 WBC's
white blood cells (white blood cells; volunteer P1, 30 Min after 80 μg/kg s.c.): 8.02 ×10^3 WBC's
white blood cells (white blood cells; volunteer P1, Day 2 after 80 μg/kg s.c.): 7.07 ×10^3 WBC's
white blood cells (white blood cells; volunteer P2, 1 Hr after 80 μg/kg s.c.): 8.93 ×10^3 WBC's
white blood cells (white blood cells; volunteer P2, 2 Hr after 80 μg/kg s.c.): 13.5 ×10^3 WBC's
white blood cells (white blood cells; volunteer P2, 4 Hr after 80 μg/kg s.c.): 18.00 ×10^3 WBC's
white blood cells (white blood cells; volunteer P2, 6 Hr after 80 μg/kg s.c.): 19.2 ×10^3 WBC's
white blood cells (white blood cells; volunteer P2, 9 Hr after 80 μg/kg s.c.): 19.6 ×10^3 WBC's
white blood cells (white blood cells; volunteer P2, 30 Min after 80 μg/kg s.c.): 6.53 ×10^3 WBC's
white blood cells (white blood cells; volunteer P2, Day 2 after 80 μg/kg s.c.): 8.03 ×10^3 WBC's
white blood cells (white blood cells; volunteer P3, 1 Hr after 80 μg/kg s.c.): 9.28 ×10^3 WBC's
white blood cells (white blood cells; volunteer P3, 4 Hr after 80 μg/kg s.c.): 18.10 ×10^3 WBC's
white blood cells (white blood cells; volunteer P3, 6 Hr after 80 μg/kg s.c.): 17.9 ×10^3 WBC's
white blood cells (white blood cells; volunteer P3, 9 Hr after 80 μg/kg s.c.): 18.4 ×10^3 WBC's
white blood cells (white blood cells; volunteer P3, 30 Min after 80 μg/kg s.c.): 7.14 ×10^3 WBC's
white blood cells (white blood cells; volunteer P3, Day 2 after 80 μg/kg s.c.): 4.98 ×10^3 WBC's
white blood cells (white blood cells; volunteer P4, 1 Hr after 80 μg/kg s.c.): 7.38 ×10^3 WBC's
white blood cells (white blood cells; volunteer P4, 2 Hr after 80 μg/kg s.c.): 12.4 ×10^3 WBC's
white blood cells (white blood cells; volunteer P4, 4 Hr after 80 μg/kg s.c.): 14.6 ×10^3 WBC's
white blood cells (white blood cells; volunteer P4, 6 Hr after 80 μg/kg s.c.): 15.8 ×10^3 WBC's
white blood cells (white blood cells; volunteer P4, 9 Hr after 80 μg/kg s.c.): 13.9 ×10^3 WBC's
white blood cells (white blood cells; volunteer P4, 30 Min after 80 μg/kg s.c.): 4.37 ×10^3 WBC's
white blood cells (white blood cells; volunteer P4, Day 2 after 80 μg/kg s.c.): 4.98 ×10^3 WBC's
white blood cells (white blood cells; volunteer P5, 1 Hr after 80 μg/kg s.c.): 8.43 ×10^3 WBC's
white blood cells (white blood cells; volunteer P5, 4 Hr after 80 μg/kg s.c.): 16.90 ×10^3 WBC's
white blood cells (white blood cells; volunteer P5, 6 Hr after 80 μg/kg s.c.): 19.3 ×10^3 WBC's
white blood cells (white blood cells; volunteer P5, 9 Hr after 80 μg/kg s.c.): 19.00 ×10^3 WBC's
white blood cells (white blood cells; volunteer P5, 30 Min after 80 μg/kg s.c.): 6.08 ×10^3 WBC's
white blood cells (white blood cells; volunteer P5, Day 2 after 80 μg/kg s.c.): 4.57 ×10^3 WBC's
